Values of other authors, collected in patent US20020035131A1, “Regimen and kit for amelioration of premature ejaculation” (Pentech Pharmaceuticals, Inc., priority 1999, published 2002).

Test system: patients treated for premature ejaculation
Details: cited from earlier work

CN[C@H]1CC[C@@H](c2ccc(Cl)c(Cl)c2)c2ccccc21 [sertraline]
patients who managed to ejaculate during sexual intercourse (25 mg sertraline/day, study group of 46): all patients | men unable to ejaculate after prolonged sexual intercourse (50 mg sertraline/day, 4/46): 9% | patients unable to ejaculate after prolonged sexual intercourse (100 mg sertraline/day, 10/46): 22%
